# Where “and” joins values, the source holds several entries; their conditions need not be identical. Identical values can stand only once. Entries after “also recorded” stand apart in the source; their conditions may differ.
# How the values were obtained:
# [1] = In vitro binding to hydroxyapatite; details: 20 mg hydroxyapatite in saline, 10 min at room temperature
# Outline: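 Binding is given as the percentage of ^68Ga activity retained by hydroxyapatite, measured by gamma counting of the solid versus the pooled supernatant and saline washes. The tracer (1 μCi) was exposed for 10 min at room temperature to hydroxyapatite pre-soaked 24 h in isotonic saline.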
# [2] = Micro-PET imaging in normal mice; assay type: in vivo, normal CD-1 male mice; details: 15 min scan at 60 min post-injection
# Protocol: [^68Ga]1a, [^68Ga]BPAMD and [^18F]NaF were tested in normal CD-1 male mice. [^68Ga]1g was tested in PSMA expressing LNCaP tumor bearing nude mice. Mice received 300-500 uCi radiotracer through a tail vein injection. PET imaging was performed under isoflurane anaesthesia (2% isoflurane, 1.5 L/min oxygen). The microPET imaging was performed with a small animal PET (Mosaic by Phillips, USA). During PET measurements, the animals were placed in the prone position. At 60 min post injection of the radiotracer, data acquisition was performed for 15 min.
# [3] = In vivo biodistribution in mice; set-up: species or system normal CD-1 male mice; details: for bone to blood ratio / bone to muscle ratio / Biodistribution: Blood / Biodistribution: Bone / Biodistribution: Brain / Biodistribution: Heart / Biodistribution: Kidney / Biodistribution: Liver / Biodistribution: Lung / Biodistribution: Muscle / Biodistribution: Pancreas / Biodistribution: Skin / Biodistribution: Spleen: iv
# Outline: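 Uptake values are % injected dose per gram of wet tissue, from gamma counting of weighed organs with tibia plus femur taken as bone. Tracers (20-30 μCi per animal) were given i.v. to healthy male CD-1 mice (25-30 g), with sacrifice at 2, 30, 60 and 120 min post injection.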
# [4] = system: PSMA positive LNCaP cells; assay: Cell uptake in PSMA positive LNCaP cells; assay type: cell-based; details: 1 hr incubation at 37° C.
compound,measurement,setting,value
O=C([O-])CN(CCN(CC(=O)[O-])Cc1cc(CCC(=O)NC(P(=O)(O)O)P(=O)(O)O)ccc1[O-])Cc1cc(CCC(=O)O)ccc1[O-].[68Ga+3] [[^68Ga]1a],Hydroxyapatite Binding (%),[1],92.3 ± 1.1%
same,Micro-PET localization (in words),[2],localized in the spines of mice
same,bone to blood ratio,[3]; 2 min,0.9
same,bone to muscle ratio,[3]; 2 min,4.8
same,Biodistribution: Blood,[3]; 2 min post injection,9.39 ± 0.93 % dose/g
same,Biodistribution: Bone,[3]; 2 min post injection,8.60 ± 0.85 % dose/g
same,Biodistribution: Brain,[3]; 2 min post injection,0.31 ± 0.10 % dose/g
same,Biodistribution: Heart,[3]; 2 min post injection,3.28 ± 0.13 % dose/g
same,Biodistribution: Kidney,[3]; 2 min post injection,31.2 ± 1.92 % dose/g
same,Biodistribution: Liver,[3]; 2 min post injection,1.95 ± 0.15 % dose/g
same,Biodistribution: Lung,[3]; 2 min post injection,4.28 ± 0.21 % dose/g
same,Biodistribution: Muscle,[3]; 2 min post injection,1.80 ± 0.16 % dose/g
same,Biodistribution: Pancreas,[3]; 2 min post injection,1.58 ± 0.10 % dose/g
same,Biodistribution: Skin,[3]; 2 min post injection,2.18 ± 0.28 % dose/g
same,Biodistribution: Spleen,[3]; 2 min post injection,1.89 ± 0.20 % dose/g
same,bone to blood ratio,[3]; 30 min,36
same,bone to muscle ratio,[3]; 30 min,96
same,Biodistribution: Blood,[3]; 30 min (0.5 hr) post injection,0.45 ± 0.10 % dose/g
same,Biodistribution: Bone,[3]; 30 min (0.5 hr) post injection,16.0 ± 1.22 % dose/g
same,Biodistribution: Brain,[3]; 30 min (0.5 hr) post injection,0.02 ± 0.01 % dose/g
same,Biodistribution: Heart,[3]; 30 min (0.5 hr) post injection,0.22 ± 0.02 % dose/g
same,Biodistribution: Kidney,[3]; 30 min (0.5 hr) post injection,1.54 ± 0.29 % dose/g
same,Biodistribution: Liver,[3]; 30 min (0.5 hr) post injection,0.32 ± 0.20 % dose/g
same,Biodistribution: Lung,[3]; 30 min (0.5 hr) post injection,0.38 ± 0.03 % dose/g
same,Biodistribution: Muscle,[3]; 30 min (0.5 hr) post injection,0.17 ± 0.03 % dose/g
same,Biodistribution: Pancreas,[3]; 30 min (0.5 hr) post injection,0.30 ± 0.27 % dose/g
same,Biodistribution: Skin,[3]; 30 min (0.5 hr) post injection,0.42 ± 0.12 % dose/g
same,Biodistribution: Spleen,[3]; 30 min (0.5 hr) post injection,0.17 ± 0.01 % dose/g
same,bone to blood ratio,[3]; 60 min,118
same,Biodistribution: Blood,[3]; 60 min (1 hr) post injection,0.20 ± 0.06 % dose/g
same,Biodistribution: Bone,[3]; 60 min (1 hr) post injection,23.5±1.4 % dose/g and 23.5 ± 1.42 % dose/g
same,Biodistribution: Brain,[3]; 60 min (1 hr) post injection,0.02 ± 0.01 % dose/g
same,Biodistribution: Heart,[3]; 60 min (1 hr) post injection,0.12 ± 0.02 % dose/g
same,Biodistribution: Kidney,[3]; 60 min (1 hr) post injection,1.63 ± 0.71 % dose/g
same,Biodistribution: Liver,[3]; 60 min (1 hr) post injection,0.17 ± 0.01 % dose/g
same,Biodistribution: Lung,[3]; 60 min (1 hr) post injection,0.21 ± 0.03 % dose/g
same,Biodistribution: Muscle,[3]; 60 min (1 hr) post injection,0.08 ± 0.02 % dose/g
same,Biodistribution: Pancreas,[3]; 60 min (1 hr) post injection,0.09 ± 0.02 % dose/g
same,Biodistribution: Skin,[3]; 60 min (1 hr) post injection,0.19 ± 0.05 % dose/g
same,Biodistribution: Spleen,[3]; 60 min (1 hr) post injection,0.10 ± 0.02 % dose/g
same,bone to blood ratio,[3]; 120 min,320
same,bone to muscle ratio,[3]; 120 min,447
same,Biodistribution: Blood,[3]; 120 min post injection,0.07 ± 0.03 % dose/g
same,Biodistribution: Bone,[3]; 120 min post injection,23.9 ± 1.99 % dose/g
same,Biodistribution: Brain,[3]; 120 min post injection,0.01 ± 0.00 % dose/g
same,Biodistribution: Heart,[3]; 120 min post injection,0.07 ± 0.01 % dose/g
same,Biodistribution: Kidney,[3]; 120 min post injection,0.92 ± 0.10 % dose/g
same,Biodistribution: Liver,[3]; 120 min post injection,0.14 ± 0.02 % dose/g
same,Biodistribution: Lung,[3]; 120 min post injection,0.12 ± 0.03 % dose/g
same,Biodistribution: Muscle,[3]; 120 min post injection,0.05 ± 0.01 % dose/g
same,Biodistribution: Pancreas,[3]; 120 min post injection,0.05 ± 0.01 % dose/g
same,Biodistribution: Skin,[3]; 120 min post injection,0.13 ± 0.03 % dose/g
same,Biodistribution: Spleen,[3]; 120 min post injection,0.09 ± 0.03 % dose/g
same,"Biodistribution result in words (organ uptake, retention, excretion)",[3]; normal mice after iv injection,excellent bone uptake and fast kidney excretion; also recorded: excellent bone uptake and retention
"O=C(O)CCC(CP(=O)(O)O)C(=O)O (stereo not shown) [2-PMPA, 2-(phosphonomethyl)pentane-1,5-dioic acid, reference compound]",Blocking of [68Ga]1g cell uptake to PSMA positive LNCaP cells,[4],blocked the cell uptake

# — patent US10253052B2, “HBED-bisphosphonates, radiometal conjugates and their use as theranostic agents” (Five Eleven Pharma Inc., priority 2015, dated 2019)
